Results as given in the supplement of paper PMC10307832.

Tests used:
Assay in all cases: relative viability (nuclei count vs DMSO), 5 days (fraction); higher = more cells survive
[1] = compound: CS(=O)(=O)c1ccc(-c2cnc(N)c(C(=O)Nc3ccccc3)n2)cc1 [VE-821] + CC(=O)Nc1cccc(-n2c(=O)n(C3CC3)c(=O)c3c(Nc4ccc(I)cc4F)n(C)c(=O)c(C)c32)c1 [Trametinib] (partner 0.02 µM)
Summary of the method: (§1)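 Five library-drug doses in √10 steps were combined with a fixed anchor-drug dose, or a single drug was given alone, by pin tool to lung cancer cell lines in 1536-well plates the day after seeding. Nuclei were stained and counted after 5 days. Relative viability is the nuclei count in treated wells over that in vehicle wells, taken as the median of duplicate plates.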

[2] = compound: CS(=O)(=O)c1ccc(C(=O)Nc2ccc(Cl)c(-c3ccccn3)c2)c(Cl)c1 [Vismodegib] + C[C@]1(O)C[C@@H](c2nc(-c3ccc4ccc(-c5ccccc5)nc4c3)c3c(N)nccn32)C1 [Linsitinib] (partner 1 µM)
Summary of the method: as §1

[3] = compound: N#CC[C@H](C1CCCC1)n1cc(-c2ncnc3[nH]ccc23)cn1 [Ruxolitinib] + COc1cc2c(Oc3ccc(NC(=O)C4(C(=O)Nc5ccc(F)cc5)CC4)cc3F)ccnc2cc1OCCCN1CCOCC1 [Foretinib] (partner 0.25 µM)
Summary of the method: as §1

[4] = compound: CS(=O)(=O)c1ccc(-c2cnc(N)c(C(=O)Nc3ccccc3)n2)cc1 [VE-821] + CS(=O)(=O)N1CCN(Cc2cc3nc(-c4cccc5[nH]ncc45)nc(N4CCOCC4)c3s2)CC1 [Pictilisib] (partner 1 µM)
Summary of the method: as §1

With UMC-11 the relative viability ([1]; first compound 0.08 µM) was 0.738, the relative viability ([1]; first compound 0.253 µM) was 0.596 and the relative viability ([1]; first compound 0.8 µM) was 0.516. For the same cell line, the relative viability ([1]; first compound 2.53 µM) was 0.798, the relative viability ([1]; first compound 8 µM) was 0.38 and the relative viability ([2]; first compound 0.08 µM) was 0.931. The relative viability ([2]; first compound 0.253 µM) was 0.996, the relative viability ([2]; first compound 0.8 µM) was 1.06 and the relative viability ([2]; first compound 2.53 µM) was 0.927. For the same cell line, the relative viability ([2]; first compound 8 µM) was 1, the relative viability ([3]; first compound 0.08 µM) was 1.05 and the relative viability ([3]; first compound 0.253 µM) was 1.07. It also gave a relative viability ([3]; first compound 0.8 µM) of 1.28, a relative viability ([3]; first compound 2.53 µM) of 1.07 and a relative viability ([3]; first compound 8 µM) of 1.02. For the same cell line, the relative viability ([4]; first compound 0.08 µM) was 0.933, the relative viability ([4]; first compound 0.253 µM) was 0.781 and the relative viability ([4]; first compound 0.8 µM) was 0.613. For the same cell line, the relative viability ([4]; first compound 2.53 µM) was 0.84 and the relative viability ([4]; first compound 8 µM) was 0.4.
